Test results published in patent publication US20240158446A1, “CYCLIC COMPOUND HAVING SELECTIVE INHIBITORY ACTION ON KRAS OVER HRAS AND NRAS” (CHUGAI SEIYAKU KABUSHIKI KAISHA, priority 2021, published 2024).

What was measured:
[1] = molecular target: GDP-bound NRAS wild-type protein (Homo sapiens, UniProt P01111); test: Binding to NRAS by surface plasmon resonance (SPR), Single Cycle Kinetics; conditions: for NRAS/KRAS (ratio of KD value with respect to GDP-bound NRAS wild-type protein to KD value with respect to KRAS): SPR KD ratio NRAS/KRAS, class symbols
[2] = molecular target: GDP-bound HRAS wild-type protein (Homo sapiens, UniProt P01112); test: Binding to HRAS by surface plasmon resonance (SPR), Single Cycle Kinetics; conditions: for HRAS/KRAS (ratio of KD value with respect to GDP-bound HRAS wild-type protein to KD value with respect to KRAS): SPR KD ratio HRAS/KRAS, class symbols
[3] = SPR, GDP-bound NRAS wild-type protein vs GDP-bound KRAS wild-type protein
[4] = SPR, GDP-bound HRAS wild-type protein vs GDP-bound KRAS wild-type protein
[5] = SPR, GDP-bound NRAS wild-type protein vs GDP-bound KRAS wild-type protein, KD ratio class
[6] = SPR, GDP-bound HRAS wild-type protein vs GDP-bound KRAS wild-type protein, KD ratio class

Chain of GDP-bound NRAS wild-type protein (P01111 whole entry): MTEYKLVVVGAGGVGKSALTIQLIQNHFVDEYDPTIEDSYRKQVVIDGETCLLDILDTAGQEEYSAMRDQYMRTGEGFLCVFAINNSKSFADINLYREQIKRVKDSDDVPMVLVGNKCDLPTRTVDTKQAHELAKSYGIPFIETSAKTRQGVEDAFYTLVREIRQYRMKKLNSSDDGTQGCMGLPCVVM
Chain of GDP-bound HRAS wild-type protein (P01112 whole entry): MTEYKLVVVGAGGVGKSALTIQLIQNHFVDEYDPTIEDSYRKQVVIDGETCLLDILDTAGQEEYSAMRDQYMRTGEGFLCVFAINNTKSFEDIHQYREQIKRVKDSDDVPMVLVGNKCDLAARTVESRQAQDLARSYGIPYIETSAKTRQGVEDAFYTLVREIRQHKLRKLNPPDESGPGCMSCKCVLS

SMILES | NRAS/KRAS (ratio of KD value with respect to GDP-bound NRAS wild-type protein to KD value with respect to KRAS) [1] | HRAS/KRAS (ratio of KD value with respect to GDP-bound HRAS wild-type protein to KD value with respect to KRAS) [2] | NRAS/KRAS (ratio of KD value for NRAS to KD value for KRAS) [1, 3] | HRAS/KRAS (ratio of KD value for HRAS to KD value for KRAS) [2, 4] | also measured
CCO[C@@H]1C[C@H]2C(=O)N(C)C3(CC(C)(C)C3)C(=O)N(C)[C@@H](C(CC)CC)C(=O)N(C)[C@H](C(=O)N(C)C)CC(=O)N(C)[C@@H](COC)C(=O)N[C@@H]([C@@H](C)CC)C(=O)N(C)CC(=O)N(C)[C@H]3C/C=C\CCN(C3=O)[C@@H](Cc3ccc(C)cc3)C(=O)N(C)CC(=O)N[C@@H](CCc3ccc(Cl)c(Cl)c3)C(=O)N2C1 [PP2810] | AA (a compound having 20 or more is denoted as AA) | A (a compound having 10 or more and less than 20 is denoted as A) |  |  | 
CCO[C@@H]1C[C@H]2C(=O)NC3(CCC3)C(=O)N(C)[C@@H](C3CCCC3)C(=O)N(C)[C@H](C(=O)N(C)C)CC(=O)N(C)[C@@H](CC)C(=O)N[C@@H]([C@@H](C)CC)C(=O)N(C)CC(=O)N(C)[C@H]3CCCCCN(C3=O)[C@@H](Cc3ccc4ccsc4c3)C(=O)N(C)CC(=O)N[C@@H](CCc3cc(F)c(C(F)(F)F)c(F)c3)C(=O)N2C1 [PP0910] |  |  | B (a compound having 3 or more and less than 10 is denoted as B) | B (a compound having 3 or more and less than 10 is denoted as B) | 
CCCOC[C@H]1C(=O)N[C@@H]([C@@H](C)CC)C(=O)N(C)CC(=O)N(C)[C@H]2C/C=C\CCN(C2=O)[C@@H](Cc2ccc(C)cc2)C(=O)N(C)CC(=O)N[C@@H](CCc2cc(F)c(C(F)(F)F)c(F)c2)C(=O)N2C[C@H](CC)C[C@H]2C(=O)NC2(CCCC2)C(=O)N(C)[C@@H](C2CCCC2)C(=O)N(C)[C@H](C(=O)N(C)C)CC(=O)N1C [PP2218] |  |  | A (a compound having 10 or more and less than 20 is denoted as A) | A (a compound having 10 or more and less than 20 is denoted as A) | 
CCO[C@@H]1C[C@H]2C(=O)NC3(CC(C)(C)C3)C(=O)N(C)[C@@H](C(CC)CC)C(=O)N(C)[C@H](C(=O)N(C)C)CC(=O)N(C)[C@@H](CC(C)C)C(=O)N[C@@H]([C@@H](C)CC)C(=O)N(C)CC(=O)N(C)[C@H]3C/C=C\CCN(C3=O)[C@@H](Cc3ccc(C)cc3)C(=O)N(C)CC(=O)N[C@@H](CCc3cc(F)c(C(F)(F)F)c(F)c3)C(=O)N2C1 [PP2141] |  |  | A (a compound having 10 or more and less than 20 is denoted as A) | A (a compound having 10 or more and less than 20 is denoted as A) | 
CC[C@H](C)[C@@H]1NC(=O)[C@H](CC(C)C)N(C)C(=O)C[C@@H](C(=O)N2CCOCC2)N(C)C(=O)[C@H](C2CCCC2)N(C)C(=O)C2(CCC2)NC(=O)[C@@H]2[C@H](O)CCN2C(=O)[C@H](CCc2cc(F)c(C(F)(F)F)c(F)c2)NC(=O)CN(C)C(=O)[C@H](Cc2ccc(C(F)(F)F)cc2)N2CCCCC[C@@H](C2=O)N(C)C(=O)CN(C)C1=O [PP0873] |  |  | A (a compound having 10 or more and less than 20 is denoted as A) | B (a compound having 3 or more and less than 10 is denoted as B) | 
CCC[C@H]1C(=O)N[C@@H]([C@@H](C)CC)C(=O)N(C)CC(=O)N(C)[C@H]2C/C=C\CCN(C2=O)[C@@H](Cc2ccc(C(F)(F)F)cc2)C(=O)N(C)CC(=O)N[C@@H](CCc2cc(Cl)c(C(F)(F)F)c(Cl)c2)C(=O)N2C[C@H](OCC)C[C@H]2C(=O)NC2(CC(C)(C)C2)C(=O)N(C)[C@@H](C2CCCC2)C(=O)N(C)[C@H](C(=O)N(C)C)CC(=O)N1C [PP2859] | A (a compound having 10 or more and less than 20 is denoted as A) | A (a compound having 10 or more and less than 20 is denoted as A) |  |  | 
CCC[C@H]1C(=O)N[C@@H]([C@@H](C)CC)C(=O)N(C2CC2)CC(=O)N(C)[C@H]2C/C=C\CCN(C2=O)[C@@H](Cc2ccc(C)cc2)C(=O)N(C)CC(=O)N[C@@H](CCc2cc(F)c3c(c2)CCC3)C(=O)N2C[C@H](OCC)C[C@H]2C(=O)NC2(CC(C)(C)C2)C(=O)N(C)[C@@H](C2CCCC2)C(=O)N(C)[C@H](C(=O)N(C)C)CC(=O)N1C [PP2879] | A (a compound having 10 or more and less than 20 is denoted as A) | A (a compound having 10 or more and less than 20 is denoted as A) |  |  | 
CCO[C@@H]1C[C@H]2C(=O)NC3(CC(C)(C)C3)C(=O)N(C)[C@@H](C3CCCC3)C(=O)N(C)[C@H](C(=O)N(C)C)CC(=O)N(C)[C@@H](CC3CCCC3)C(=O)N[C@@H]([C@@H](C)CC)C(=O)N(C)CC(=O)N(C)[C@H]3C/C=C\CCN(C3=O)[C@@H](Cc3ccc(C(F)(F)F)cc3)C(=O)N(C)CC(=O)N[C@@H](CCc3ccc(C(F)(F)F)c(OC)c3)C(=O)N2C1 [PP1565] |  |  |  |  | NRAS/KRAS (ratio of KD value for NRAS to KD value for KRAS) [1, 5]: A (a compound having 10 or more and less than 20 is denoted as A); HRAS/KRAS (ratio of KD value for HRAS to KD value for KRAS) [2, 6]: B (a compound having 3 or more and less than 10 is denoted as B)
CCC[C@H]1C(=O)N[C@@H](C2CCOCC2)C(=O)N(C)CC(=O)N(C)[C@H]2C/C=C\CCN(C2=O)[C@@H](Cc2ccc(C)cc2)C(=O)N(C)CC(=O)N[C@@H](CCc2ccc(C(F)(F)F)c(Cl)c2)C(=O)N2C[C@H](OCC)C[C@H]2C(=O)NC2(CC(C)(C)C2)C(=O)N(C)[C@@H](CC(C)(C)C)C(=O)N(C)[C@H](C(=O)N(C)C)CC(=O)N1C [PP3026] |  |  | A (a compound having 10 or more and less than 20 is denoted as A) | A (a compound having 10 or more and less than 20 is denoted as A) | 
CC[C@H](C)[C@@H]1NC(=O)[C@H](CC(C)C)N(C)C(=O)C[C@@H](C(=O)N2CCOCC2)N(C)C(=O)[C@H](C2CCCC2)N(C)C(=O)C2(COC2)NC(=O)[C@@H]2CCCN2C(=O)[C@H](CCc2cc(F)c(C(F)(F)F)c(F)c2)NC(=O)CN(C)C(=O)[C@H](Cc2ccc(C(F)(F)F)cc2)N2CCCCC[C@@H](C2=O)N(C)C(=O)CN(C)C1=O [PP0501] |  |  |  |  | NRAS/KRAS (ratio of KD value with respect to NRAS to KD value with respect to KRAS) [1, 3]: B (a compound having 3 or more and less than 10 is denoted as B); HRAS/KRAS (ratio of KD value with respect to HRAS to KD value with respect to KRAS) [2, 4]: B (a compound having 3 or more and less than 10 is denoted as B)
CCC[C@H]1C(=O)N[C@@H]([C@@H](C)CC)C(=O)N(C)CC(=O)N(C)[C@H]2C/C=C\CCN(C2=O)[C@@H](Cc2ccc(C(F)(F)F)cc2)C(=O)N(C)CC(=O)N[C@@H](CCc2ccc(C(F)F)c(OC)c2)C(=O)N2C[C@H](OCC)C[C@H]2C(=O)NC2(CC(C)(C)C2)C(=O)N(C)[C@@H](C2CCCC2)C(=O)N(C)[C@H](C(=O)N(C)C)CC(=O)N1C [PP2868] | A (a compound having 10 or more and less than 20 is denoted as A) | A (a compound having 10 or more and less than 20 is denoted as A) |  |  | 
CCO[C@@H]1C[C@H]2C(=O)NC3(CCC3)C(=O)N(C)[C@@H](C3CCCC3)C(=O)N(C)[C@H](C(=O)N(C)C)CC(=O)N(C)[C@@H](CC3CCCC3)C(=O)N[C@@H]([C@@H](C)CC)C(=O)N(C)CC(=O)N(C)[C@H]3C/C=C\CCN(C3=O)[C@@H](Cc3ccc(F)cc3C)C(=O)N(C)CC(=O)N[C@@H](CCc3cc(F)c(C(F)(F)F)c(F)c3)C(=O)N2C1 [PP1530] |  |  |  |  | NRAS/KRAS (ratio of KD value for NRAS to KD value for KRAS) [1, 5]: A (a compound having 10 or more and less than 20 is denoted as A); HRAS/KRAS (ratio of KD value for HRAS to KD value for KRAS) [2, 6]: B (a compound having 3 or more and less than 10 is denoted as B)
CCO[C@@H]1C[C@H]2C(=O)NC3(CC(C)(C)C3)C(=O)N(C)[C@@H](C3CCCC3)C(=O)N(C)[C@H](C(=O)N(C)C)CC(=O)N(C)[C@H]3CCCCC/C=C/c4ccc(cc4)C[C@@H](C(=O)N(C)CC(=O)N[C@@H](CCc4ccc(Cl)c(Cl)c4)C(=O)N2C1)N1CC/C=C\C[C@@H](C1=O)N(C)C(=O)CN(C)C(=O)[C@H]([C@@H](C)CC)NC3=O [PP3057] |  |  | A (a compound having 10 or more and less than 20 is denoted as A) | B (a compound having 3 or more and less than 10 is denoted as B) | 
CCC(CC)[C@H]1C(=O)N(C)[C@H](C(=O)N(C)C)CC(=O)N(C)[C@@H](COC)C(=O)N[C@@H]([C@@H](C)CC)C(=O)N(C)CC(=O)N(C)[C@H]2C/C=C\CCN(C2=O)[C@@H](Cc2ccc(C)cc2)C(=O)N(C)CC(=O)N[C@@H](CCc2ccc(C(F)(F)F)c(Cl)c2)C(=O)N2CC3(CC3)C[C@H]2C(=O)NC2(CC(C)(C)C2)C(=O)N1C [PP2967] | AA (a compound having 20 or more is denoted as AA) | A (a compound having 10 or more and less than 20 is denoted as A) |  |  | 
CCC[C@H]1C(=O)N[C@@H]([C@@H](C)CC)C(=O)N(C)CC(=O)N(C)[C@H]2C/C=C\CCN(C2=O)[C@@H](Cc2ccc(C)cc2)C(=O)N(C)CC(=O)N[C@@H](CCc2cc(Cl)c3c(ccn3C)c2)C(=O)N2C[C@H](OCC)C[C@H]2C(=O)NC2(CC(C)(C)C2)C(=O)N(C)[C@@H](C2CCCC2)C(=O)N(C)[C@H](C(=O)N(C)C)CC(=O)N1C [PP2951] | A (a compound having 10 or more and less than 20 is denoted as A) | A (a compound having 10 or more and less than 20 is denoted as A) |  |  | 
